Measurements reported in US20100081690A1, “OXAZOLE DERIVATIVES AS POSITIVE ALLOSTERIC MODULATORS OF METABOTROPIC GLUTAMATE RECEPTORS” (ADDEX PHARMA SA, priority 2006, published 2010).

How the values were obtained:
rat mGluR5 = molecular target: T1, rat mGluR5 (Rattus norvegicus, UniProt P31424); assay: mGluR5 assay on HEK-expressing rat mGluR5 (fluorescent cell based Ca2+ mobilization); settings: HEK-293 cells stably expressing rat mGluR5, no co-addition of glutamate; mean of at least three independent experiments in duplicate; read-out: Ca2+ Flux (mean EC50)
T1 construct: expressed in transfected cells
T1 sequence (P31424 21-1171 isoform P31424-2 limits assumed): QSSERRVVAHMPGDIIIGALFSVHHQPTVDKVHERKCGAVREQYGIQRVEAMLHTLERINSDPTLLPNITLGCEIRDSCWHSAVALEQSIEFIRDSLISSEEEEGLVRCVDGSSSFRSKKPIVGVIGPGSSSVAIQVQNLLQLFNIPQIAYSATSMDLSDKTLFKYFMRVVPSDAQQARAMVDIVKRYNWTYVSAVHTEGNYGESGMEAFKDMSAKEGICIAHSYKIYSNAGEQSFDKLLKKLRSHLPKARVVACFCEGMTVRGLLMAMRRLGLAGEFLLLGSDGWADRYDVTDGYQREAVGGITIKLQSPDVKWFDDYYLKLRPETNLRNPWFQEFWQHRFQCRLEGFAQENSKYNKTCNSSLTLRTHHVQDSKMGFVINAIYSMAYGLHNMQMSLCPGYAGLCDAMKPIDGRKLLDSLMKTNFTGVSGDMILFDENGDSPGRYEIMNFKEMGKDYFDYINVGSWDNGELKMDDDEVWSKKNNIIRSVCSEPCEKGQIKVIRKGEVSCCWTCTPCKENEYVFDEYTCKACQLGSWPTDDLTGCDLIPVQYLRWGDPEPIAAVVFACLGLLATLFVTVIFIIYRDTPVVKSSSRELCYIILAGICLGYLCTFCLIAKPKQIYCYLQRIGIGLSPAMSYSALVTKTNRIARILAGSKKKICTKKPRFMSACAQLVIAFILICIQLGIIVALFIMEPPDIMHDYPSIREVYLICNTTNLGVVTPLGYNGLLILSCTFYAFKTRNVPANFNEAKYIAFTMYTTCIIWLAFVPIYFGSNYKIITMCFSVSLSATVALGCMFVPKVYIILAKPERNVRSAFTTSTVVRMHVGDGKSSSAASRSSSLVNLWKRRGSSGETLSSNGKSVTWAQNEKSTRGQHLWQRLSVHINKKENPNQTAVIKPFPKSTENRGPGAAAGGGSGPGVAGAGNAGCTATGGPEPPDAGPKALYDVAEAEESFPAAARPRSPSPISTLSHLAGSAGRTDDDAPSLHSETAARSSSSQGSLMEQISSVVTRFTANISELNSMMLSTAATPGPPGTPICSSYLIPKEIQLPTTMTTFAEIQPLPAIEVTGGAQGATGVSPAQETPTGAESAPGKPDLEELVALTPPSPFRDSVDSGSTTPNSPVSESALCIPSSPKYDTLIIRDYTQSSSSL
Description: Positive functional expression of HEK-293 cells stably expressing rat mGluR5 receptor was determined by measuring intracellular Ca^2+ changes using a Fluorometric Imaging Plate Reader (FLIPR, Molecular Devices, Sunnyvale, Calif.) in response to glutamate or selective known mGluR5 agonists and antagonists. Rat mGluR5RT-PCR products in HEK-293 cells were sequenced and found 100% identical to rat mGluR5Genbank reference sequence (NM_017012). HEK-293 cells expressing rmGluR5 were maintained in media containing DMEM, dialyzed Fetal Bovine Serum (10%), Glutamax™ (2 mM), Penicillin (100 units/ml), Streptomycin (100 μg/ml), Geneticin (100 μg/ml) and Hygromycin-B (40 μg/ml) at 37° C./5% CO2.
After one day of incubation, cells were washed with assay buffer containing: 142 mM NaCl, 6 mM KCl, 1 mM […], 1 mM CaCl2, 20 mM HEPES, 1 g/L glucose, 0.125 mM sulfinpyrazone, pH 7.4. After 60 min of loading with 4 uM Fluo-4 (TefLabs, Austin, Tex.), the cells were washed three times with 50 μl of PBS Buffer and resuspended in 45 μl of assay Buffer. The plates were then transferred to a Fluorometric Imaging Plate Reader (FLIPR, Molecular Devices, Sunnyvale, Calif.) for the assessment of intracellular calcium flux. After monitoring the baseline fluorescence for 10 seconds, increasing concentrations of representative compound (from 0.01 to 60 μM) of the present invention diluted in Assay Buffer (15 μl of 4× dilutions) was added to the cell. The final DMSO concentration in the assay was 0.3%. In each experiment, fluorescence was then monitored as a function of time for 3 minutes and the data analyzed using Microsoft Excel and GraphPad Prism. Each data point was also measured two times.
Under these experimental conditions, this HEK-rat mGluR5 cell line is able to directly detect positive allosteric modulators without the need of co-addition of glutamate or mGluR5 agonist.
The concentration-response curves of representative compounds of the present invention were generated using the Prism GraphPad software (Graph Pad Inc, San Diego, USA). The curves were fitted to a four-parameter logistic equation:
(Y=Bottom+(Top-Bottom)/(1+10̂((Log EC50−X)*Hill Slope)
allowing determination of EC50 values.
The Table 1 below represents the mean EC50 obtained from at least three independent experiments of selected molecules performed in duplicate.

mGluR5 = molecular target: T2, mGluR5 (Rattus norvegicus, UniProt P31424); assay: mGluR5 binding assay ([3H]-MPEP, rat brain membranes); settings: competition with 3 nM [3H]-MPEP, rat cortical membranes, 1 h at 4° C.
T2 construct: positive allosteric modulators of mGluR5 receptors in native preparations; endogenous in cells; host or cells: primary cortical astrocytes from Sprague-Dawley rat embryos (E16-19)
T2 sequence (P31424 21-1203): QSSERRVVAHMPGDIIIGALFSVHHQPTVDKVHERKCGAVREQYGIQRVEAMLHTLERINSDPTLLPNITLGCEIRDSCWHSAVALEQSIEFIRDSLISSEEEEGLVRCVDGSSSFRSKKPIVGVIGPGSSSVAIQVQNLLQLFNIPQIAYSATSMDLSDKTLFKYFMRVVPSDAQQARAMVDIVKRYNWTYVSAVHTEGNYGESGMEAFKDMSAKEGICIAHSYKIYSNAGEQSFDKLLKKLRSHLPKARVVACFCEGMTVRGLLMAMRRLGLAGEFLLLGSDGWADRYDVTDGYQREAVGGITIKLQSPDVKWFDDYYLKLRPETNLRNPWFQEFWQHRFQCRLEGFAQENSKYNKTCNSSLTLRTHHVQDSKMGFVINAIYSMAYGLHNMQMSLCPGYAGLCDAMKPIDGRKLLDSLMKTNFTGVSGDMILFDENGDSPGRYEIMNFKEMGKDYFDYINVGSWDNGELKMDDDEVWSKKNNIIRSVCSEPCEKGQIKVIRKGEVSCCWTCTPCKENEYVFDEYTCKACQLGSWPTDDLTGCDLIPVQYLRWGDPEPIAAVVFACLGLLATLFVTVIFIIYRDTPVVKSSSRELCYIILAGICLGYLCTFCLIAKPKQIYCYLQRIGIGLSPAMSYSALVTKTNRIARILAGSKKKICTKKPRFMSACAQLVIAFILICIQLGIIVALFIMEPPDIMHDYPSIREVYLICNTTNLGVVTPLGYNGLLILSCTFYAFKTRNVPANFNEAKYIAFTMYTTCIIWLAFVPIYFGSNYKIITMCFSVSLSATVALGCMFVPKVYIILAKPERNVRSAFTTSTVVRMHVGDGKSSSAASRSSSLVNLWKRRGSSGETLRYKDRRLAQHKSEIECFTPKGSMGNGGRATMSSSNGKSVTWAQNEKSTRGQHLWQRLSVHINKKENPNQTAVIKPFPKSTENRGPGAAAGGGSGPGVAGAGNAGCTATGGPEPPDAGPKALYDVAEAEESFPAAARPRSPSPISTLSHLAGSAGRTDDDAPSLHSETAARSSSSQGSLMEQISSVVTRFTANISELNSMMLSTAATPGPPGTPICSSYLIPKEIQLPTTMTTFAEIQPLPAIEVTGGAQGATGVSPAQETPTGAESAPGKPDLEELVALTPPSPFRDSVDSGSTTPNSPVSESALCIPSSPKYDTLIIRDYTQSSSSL
Source text: Activity of compounds of the invention was examined following a radioligand binding technique using whole rat brain and tritiated 2-methyl-6-(phenylethynyl)-pyridine ([^3H]-MPEP) as a ligand following similar methods than those described in Gasparini et al. (2002) Bioorg. Med. Chem. Lett. 12:407-409 and in Anderson et al. (2002) J. Pharmacol. Exp. Ther. 303 (3) 1044-1051.
Cortices were dissected out from brains of 200-300 g Sprague-Dawley rats (Charles River Laboratories, L'Arbresle, France). Tissues were homogenized in 10 volumes (vol/wt) of ice-cold 50 mM Hepes-NaOH (pH 7.4) using a Polytron disrupter (Kinematica AG, Luzern, Switzerland) and centrifuged for 30 min at 40,000 g. (4° C.). […] Protein concentration was determined by the Bradford method (Bio-Rad protein assay, Reinach, Switzerland) with bovine serum albumin as standard.
Membranes were thawed and resuspended in binding buffer containing 20 mM HEPES-NaOH, 3 mM MgCl2, 3 mM CaCl2, 100 mM NaCl, pH 7.4. […] Radioactivity was determined by liquid scintillation spectrometry using a 96-well plate reader (TopCount, Perkin-Elmer, Downers Grove, USA).
The inhibition curves were generated using the Prism GraphPad program (Graph Pad Software Inc, San Diego, USA). […] The mean of IC50 obtained from at least three independent experiments of selected molecules performed in duplicate were calculated.

EC50 (rat mGluR5): < 1000 nM | IC50 (mGluR5): < 10 µM
Structure (SMILES): O=C(c1ccc(F)cc1)N1CCC[C@H](c2nc(-c3cc(F)c[nH]3)co2)C1 [Example 1, (4-Fluoro-phenyl)-{(S)-3-[4-(4-fluoro-1H-pyrrol-2-yl)-oxazol-2-yl]-piperidin-1-yl}-methanone]
